{"source": "patent US10035819B2", "about": "“PPAR agonists and methods of use thereof” (The Salk Institute for Biological Studies, priority 2014, dated 2018)", "key": {"[1]": {"test": "Pharmacokinetics in male CD-1 mice (i.v. and p.o.)", "format": "in vivo", "experimental": "The oral bioavailability and serum half lives of PPARδ ligands were compared in mice. The pharmacokinetics of PPARδ ligands delivered orally (10 mg/kg p.o.) and intravenously (3 mg·kg i.v.) were determined by mass spectrometry.\nIn this example, the PK profile of several PPARδ agonists disclosed herein in male CD-1 mice or Wistar rats was determined. Similar methods can be used to analyze other compounds provided herein.\n(quantity sufficient ie made up to a final volume of 100% with water). All compounds were separately administered to CD-1 mice at 3 mg/kg iv or 10 mg/kg po.\n(§1) The concentration of the compound in plasma was determined, as illustrated in FIGS. 9A-9E."}, "[2]": {"test": "Pharmacokinetics in male Wistar rats (i.v. and p.o.)", "format": "in vivo", "experimental": "In this example, the PK profile of several PPARδ agonists disclosed herein in male CD-1 mice or Wistar rats was determined. Similar methods can be used to analyze other compounds provided herein. […]\nas §1"}, "[3]": {"test": "Solubility (kinetic, thermodynamic)", "format": "physicochemical"}, "[4]": {"system": "C57BL6J mice, freeze burn injury to the TA muscle", "test": "Acute pharmacological activation of PPARδ with oral GW501516, freeze burn injury to the TA muscle", "format": "in vivo", "experimental": "A stainless steel 1 g weight (Mettler-Toledo) equilibrated to the temperature of dry ice was placed directly on the exposed TA for 10 seconds. Following the thermal injury, incision was closed using VetBond (3M). All injury procedures were performed on the left leg, and the right leg was used as control.\nSterile 1% w/v Evans Blue dye in PBS was intraperitoneally injected at 1% volume relative to the body mass of an animal. 7 hours after the injection, injured TA muscles were harvested and snap-frozen by isopentane quenching in liquid nitrogen. Frozen sections were cut in 10 μm thickness, fixed in ice-cold acetone, dipped in xylene and mounted with DPX. Proportion of the stained area over the total area was measured using ImageJ software.\n50 mg/kg body weight of BrdU (Sigma) was injected intraperitoneally as solution of 10 mg/mL BrdU in saline. TA muscles were harvested at 7 days after injury and processed for paraffin sections as described above. BrdU incorporation was visualized using the BrdU Labeling and Detection Kit I (Roche) and BrdU+ nuclei were counted and represented as a proportion of total nuclei in a field.\nWhole or partial tissues were homogenized by Polytron probe homogenizer in Trizol reagent (Invitrogen). Total RNA was extracted from the homogenates according to the manufacturer's protocol. 1 μg of DNase-treated total RNA was reverse transcribed using Superscript II Reverse Transcriptase (Invitrogen) according to the manufacturer's instructions. cDNAs were diluted 1/40 with ddH2O and used as templates in RT-QPCR reactions with SYBRGreenER qPCR SuperMix detection system (Invitrogen). Samples were prepared in technical triplicates and relative mRNA levels were calculated by using the standard curve methodology and normalized against GAPDH mRNA levels in the same samples."}, "FGF1a promoter": {"system": "FGF1a promoter", "test": "Luciferase reporter assay of the FGF1a promoter co-transfected with PPARδ", "format": "cell-based", "conditions": "with ligand", "source_text": "Increased vasculature is one of the hallmarks of oxidative myofibers, which facilitates introduction of immune cells and also supports increased number of satellite cells."}, "[5]": {"format": "in vitro ADME"}, "[6]": {"conditions": "male, mouse, iv, CD-1 mice, 3 mg/Kg i.v., plasma"}, "[7]": {"conditions": "male, mouse, po, CD-1 mice, 10 mg/Kg p.o., plasma"}, "[8]": {"conditions": "rat, iv, male Wistar rats, 3 mg/Kg i.v., plasma"}, "[9]": {"conditions": "rat, po, male Wistar rats, 10 mg/Kg p.o., plasma"}}}
{"smiles": "Cc1cc(SCc2sc(-c3ccc(C(F)(F)F)cc3)nc2C)ccc1OCC(=O)O", "note": "[GW501516]", "values": [{"measurement": "Kel", "setting": "[1]; CD-1 mice, 3 mg/Kg i.v., plasma", "result": 0.11, "unit": "h⁻¹"}, {"measurement": "F", "setting": "[1]; CD-1 mice, 10 mg/Kg p.o. vs 3 mg/Kg i.v.", "result": 82.1, "unit": "%"}, {"measurement": "clearance", "setting": "[1]; male, CD-1, mouse, plasma, iv, 3 mg/kg", "result": 4.42, "unit": "mL/min/kg"}, {"measurement": "Vd", "setting": "[1]; male, CD-1, mouse, plasma, iv, 3 mg/kg, CD-1 mice, 3 mg/Kg i.v., plasma, read-out: Vss", "result": 1.71, "unit": "L/kg"}, {"measurement": "Vd", "setting": "[1]; male, CD-1, mouse, plasma, iv, 3 mg/kg, CD-1 mice, 3 mg/Kg i.v., plasma, read-out: Vz", "result": 2.46, "unit": "L/kg"}, {"measurement": "half-life", "setting": "[1]; male, CD-1, mouse, plasma, iv, 3 mg/kg, read-out: Beta T1/2 (converted)", "result": 386, "unit": "min"}, {"measurement": "half-life", "setting": "[1]; male, CD-1, mouse, plasma, po, 10 mg/kg, read-out: T1/2 (converted)", "result": 359, "unit": "min"}, {"measurement": "AUC(0-inf)", "setting": "[1]; [6]", "result": 11300, "unit": "ng·h/mL"}, {"measurement": "C0", "setting": "[1]; [6]", "result": 5560, "unit": "ng/mL"}, {"measurement": "MRT", "setting": "[1]; [6]", "result": 4.96, "unit": "h"}, {"measurement": "AUC(0-inf)", "setting": "[1]; [7]", "result": 31000, "unit": "ng·h/mL"}, {"measurement": "Cmax", "setting": "[1]; [7]", "result": 3290, "unit": "ng/mL"}, {"measurement": "Tmax", "setting": "[1]; [7]", "result": 2, "unit": "h"}, {"measurement": "Kel", "setting": "[2]; male Wistar rats, 3 mg/Kg i.v., plasma", "result": 0.09, "unit": "h⁻¹"}, {"measurement": "F", "setting": "[2]; male Wistar rats, 10 mg/Kg p.o. vs 3 mg/Kg i.v.", "result": "~100", "unit": "%"}, {"measurement": "clearance", "setting": "[2]; male, Wistar, rat, plasma, iv, 3 mg/kg", "result": 5.1, "unit": "mL/min/kg"}, {"measurement": "Vd", "setting": "[2]; male, Wistar, rat, plasma, iv, 3 mg/kg, male Wistar rats, 3 mg/Kg i.v., plasma, read-out: Vss", "result": 1.99, "unit": "L/kg"}, {"measurement": "Vd", "setting": "[2]; male, Wistar, rat, plasma, iv, 3 mg/kg, male Wistar rats, 3 mg/Kg i.v., plasma, read-out: Vz", "result": 3.58, "unit": "L/kg"}, {"measurement": "half-life", "setting": "[2]; male, Wistar, rat, plasma, iv, 3 mg/kg, read-out: Beta T1/2 (converted)", "result": 484, "unit": "min"}, {"measurement": "half-life", "setting": "[2]; male, Wistar, rat, plasma, po, 10 mg/kg, read-out: T1/2 (converted)", "result": 373, "unit": "min"}, {"measurement": "AUC(0-inf)", "setting": "[2]; [8]", "result": 9960, "unit": "ng·h/mL"}, {"measurement": "C0", "setting": "[2]; [8]", "result": 5280, "unit": "ng/mL"}, {"measurement": "MRT", "setting": "[2]; [8]", "result": 4.3, "unit": "h"}, {"measurement": "AUC(0-inf)", "setting": "[2]; [9]", "result": 35100, "unit": "ng·h/mL"}, {"measurement": "Cmax", "setting": "[2]; [9]", "result": 6920, "unit": "ng/mL"}, {"measurement": "Tmax", "setting": "[2]; [9]", "result": 2, "unit": "h"}, {"measurement": "solubility kinetic", "setting": "[3]; kinetic from dmso stock", "result": 195, "unit": "µM"}, {"measurement": "solubility thermodynamic", "setting": "[3]; thermodynamic from solid", "result": 246, "unit": "µM"}, {"measurement": "Evans Blue dye uptake, stained proportion of muscle cross sectional area (CSA)", "setting": "[4]; 5 mg/kg orally, 4 days prior to and 5 days after freeze burn injury, 5 days after injury (vehicle 7.6%)", "result": 4.9, "unit": "%"}, {"measurement": "initial inflammatory responses", "setting": "[4]; 12 hours after injury, with and without ligand", "result": "similar"}, {"measurement": "TNFα and macrophage marker F4/80 expression by QPCR", "setting": "[4]; 3 days post injury, TA muscle", "result": "significant reduction"}, {"measurement": "reduction in damaged muscle fibers", "setting": "[4]; 5 days after the injury, vs vehicle", "result": 34.7, "unit": "%"}, {"measurement": "Notch1 and Hes1 expression by QPCR", "setting": "[4]; 9 day treatment", "result": "increases"}, {"measurement": "PPARδ target genes (PDK4, CPT1b, catalase) in the TA muscle by QPCR", "setting": "[4]; 9 day treatment, 5 mg/kg orally", "result": "Up-regulation"}, {"measurement": "number of quiescent satellite cells", "setting": "[4]; 9 days or 4 weeks of ligand treatment", "result": "not significantly affected"}, {"measurement": "proliferative cell number (BrdU)", "setting": "[4]; BrdU injection at 48 hours after the injury", "result": "marked increase"}, {"measurement": "FGF1a promoter luciferase reporter, PPRE-dependent", "setting": "FGF1a promoter", "result": "activation"}, {"measurement": "% Parent remained at 15 min, MLM", "setting": "[5]", "result": "93/76%"}, {"measurement": "% Parent remained at 60 min, MLM", "setting": "[5]", "result": "93/76%"}]}
